Read-outs that look alike come from different tables or passages of the source. Positions of bridges follow the written chain, without caps; N, C: chain ends. Non-standard residues stand in square brackets, D forms with d. Residues, ends and D or L forms follow the SMILES beside them. 1Nal = N[C@@H](Cc1cccc2ccccc12)C(=O)O
Columns and labels:
Experiment in all cases: cell-based
hNav1.7 = hNav1.7 (Homo sapiens, UniProt Q15858); assay type: cell-based
hNav1.5 = hNav1.5 (Homo sapiens, UniProt Q14524)
Chain of hNav1.5 (Q14524 whole entry, looked up): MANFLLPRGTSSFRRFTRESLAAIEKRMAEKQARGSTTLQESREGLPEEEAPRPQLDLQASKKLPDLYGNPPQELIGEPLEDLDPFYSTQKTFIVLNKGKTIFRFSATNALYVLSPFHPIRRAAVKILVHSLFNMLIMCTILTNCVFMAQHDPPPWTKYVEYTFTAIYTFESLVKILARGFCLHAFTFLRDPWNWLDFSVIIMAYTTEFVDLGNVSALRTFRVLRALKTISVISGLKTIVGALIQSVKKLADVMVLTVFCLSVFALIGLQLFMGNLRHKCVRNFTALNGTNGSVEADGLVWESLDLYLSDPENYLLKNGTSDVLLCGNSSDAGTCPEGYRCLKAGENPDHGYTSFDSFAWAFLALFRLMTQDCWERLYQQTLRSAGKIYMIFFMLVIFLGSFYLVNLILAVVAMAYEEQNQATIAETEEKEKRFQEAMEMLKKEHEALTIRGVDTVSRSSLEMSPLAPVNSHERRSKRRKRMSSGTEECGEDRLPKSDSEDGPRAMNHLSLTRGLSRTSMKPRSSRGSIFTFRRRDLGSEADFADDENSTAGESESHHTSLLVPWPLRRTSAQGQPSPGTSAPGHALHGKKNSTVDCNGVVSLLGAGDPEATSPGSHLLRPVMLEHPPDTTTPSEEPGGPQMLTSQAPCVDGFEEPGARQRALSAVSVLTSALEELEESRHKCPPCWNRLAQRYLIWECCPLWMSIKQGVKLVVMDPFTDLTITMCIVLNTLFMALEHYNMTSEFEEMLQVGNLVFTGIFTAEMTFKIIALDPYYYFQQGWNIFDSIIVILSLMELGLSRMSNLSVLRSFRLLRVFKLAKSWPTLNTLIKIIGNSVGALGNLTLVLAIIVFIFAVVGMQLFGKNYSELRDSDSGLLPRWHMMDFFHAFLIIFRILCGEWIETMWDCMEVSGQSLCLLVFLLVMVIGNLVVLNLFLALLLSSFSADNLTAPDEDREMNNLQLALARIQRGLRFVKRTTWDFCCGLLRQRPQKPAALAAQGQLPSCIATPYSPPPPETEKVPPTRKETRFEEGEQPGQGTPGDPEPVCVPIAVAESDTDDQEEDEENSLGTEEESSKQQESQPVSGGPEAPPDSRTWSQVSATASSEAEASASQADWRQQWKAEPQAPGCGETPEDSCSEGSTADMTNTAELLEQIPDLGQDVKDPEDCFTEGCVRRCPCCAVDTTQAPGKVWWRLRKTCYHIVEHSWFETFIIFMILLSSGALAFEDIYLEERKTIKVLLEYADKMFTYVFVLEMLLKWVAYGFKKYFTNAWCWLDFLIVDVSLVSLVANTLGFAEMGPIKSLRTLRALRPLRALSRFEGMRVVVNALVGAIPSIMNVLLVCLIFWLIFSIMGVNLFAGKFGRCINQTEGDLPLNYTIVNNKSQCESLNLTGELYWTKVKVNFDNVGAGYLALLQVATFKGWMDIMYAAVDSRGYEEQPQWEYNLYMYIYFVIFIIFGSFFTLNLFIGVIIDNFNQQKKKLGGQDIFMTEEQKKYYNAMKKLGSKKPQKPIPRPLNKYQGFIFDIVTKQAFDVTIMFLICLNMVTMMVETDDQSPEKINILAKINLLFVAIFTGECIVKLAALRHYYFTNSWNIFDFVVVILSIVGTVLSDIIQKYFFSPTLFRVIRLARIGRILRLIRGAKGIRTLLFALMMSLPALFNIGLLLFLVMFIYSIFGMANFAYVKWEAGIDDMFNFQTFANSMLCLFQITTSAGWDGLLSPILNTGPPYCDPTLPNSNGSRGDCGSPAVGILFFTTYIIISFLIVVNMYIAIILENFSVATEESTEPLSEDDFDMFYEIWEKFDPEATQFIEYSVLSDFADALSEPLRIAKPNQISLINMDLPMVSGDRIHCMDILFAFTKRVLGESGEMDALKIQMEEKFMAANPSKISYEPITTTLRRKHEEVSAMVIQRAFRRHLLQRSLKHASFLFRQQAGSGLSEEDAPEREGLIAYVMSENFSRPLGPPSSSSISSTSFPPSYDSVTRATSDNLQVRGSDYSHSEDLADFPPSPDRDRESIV

hNav1.3 = hNav1.3 (Homo sapiens, UniProt Q9NY46); conditions: IonWorks Quattro, read-out: IWQ Use Nav1.3
[1] = IonWorks Quattro, use-dependent block, hNav1.7, read-out: IWQ Use Nav1.7
[2] = IonWorks Quattro, use-dependent block, hNav1.5, read-out: IWQ Use Nav1.5
[3] = IonWorks Quattro, Use, read-out: IWQ Use Nav1.7
[4] = IonWorks Quattro, Use, read-out: IWQ Use Nav1.5

Chain of hNav1.7 (Q15858 whole entry, looked up): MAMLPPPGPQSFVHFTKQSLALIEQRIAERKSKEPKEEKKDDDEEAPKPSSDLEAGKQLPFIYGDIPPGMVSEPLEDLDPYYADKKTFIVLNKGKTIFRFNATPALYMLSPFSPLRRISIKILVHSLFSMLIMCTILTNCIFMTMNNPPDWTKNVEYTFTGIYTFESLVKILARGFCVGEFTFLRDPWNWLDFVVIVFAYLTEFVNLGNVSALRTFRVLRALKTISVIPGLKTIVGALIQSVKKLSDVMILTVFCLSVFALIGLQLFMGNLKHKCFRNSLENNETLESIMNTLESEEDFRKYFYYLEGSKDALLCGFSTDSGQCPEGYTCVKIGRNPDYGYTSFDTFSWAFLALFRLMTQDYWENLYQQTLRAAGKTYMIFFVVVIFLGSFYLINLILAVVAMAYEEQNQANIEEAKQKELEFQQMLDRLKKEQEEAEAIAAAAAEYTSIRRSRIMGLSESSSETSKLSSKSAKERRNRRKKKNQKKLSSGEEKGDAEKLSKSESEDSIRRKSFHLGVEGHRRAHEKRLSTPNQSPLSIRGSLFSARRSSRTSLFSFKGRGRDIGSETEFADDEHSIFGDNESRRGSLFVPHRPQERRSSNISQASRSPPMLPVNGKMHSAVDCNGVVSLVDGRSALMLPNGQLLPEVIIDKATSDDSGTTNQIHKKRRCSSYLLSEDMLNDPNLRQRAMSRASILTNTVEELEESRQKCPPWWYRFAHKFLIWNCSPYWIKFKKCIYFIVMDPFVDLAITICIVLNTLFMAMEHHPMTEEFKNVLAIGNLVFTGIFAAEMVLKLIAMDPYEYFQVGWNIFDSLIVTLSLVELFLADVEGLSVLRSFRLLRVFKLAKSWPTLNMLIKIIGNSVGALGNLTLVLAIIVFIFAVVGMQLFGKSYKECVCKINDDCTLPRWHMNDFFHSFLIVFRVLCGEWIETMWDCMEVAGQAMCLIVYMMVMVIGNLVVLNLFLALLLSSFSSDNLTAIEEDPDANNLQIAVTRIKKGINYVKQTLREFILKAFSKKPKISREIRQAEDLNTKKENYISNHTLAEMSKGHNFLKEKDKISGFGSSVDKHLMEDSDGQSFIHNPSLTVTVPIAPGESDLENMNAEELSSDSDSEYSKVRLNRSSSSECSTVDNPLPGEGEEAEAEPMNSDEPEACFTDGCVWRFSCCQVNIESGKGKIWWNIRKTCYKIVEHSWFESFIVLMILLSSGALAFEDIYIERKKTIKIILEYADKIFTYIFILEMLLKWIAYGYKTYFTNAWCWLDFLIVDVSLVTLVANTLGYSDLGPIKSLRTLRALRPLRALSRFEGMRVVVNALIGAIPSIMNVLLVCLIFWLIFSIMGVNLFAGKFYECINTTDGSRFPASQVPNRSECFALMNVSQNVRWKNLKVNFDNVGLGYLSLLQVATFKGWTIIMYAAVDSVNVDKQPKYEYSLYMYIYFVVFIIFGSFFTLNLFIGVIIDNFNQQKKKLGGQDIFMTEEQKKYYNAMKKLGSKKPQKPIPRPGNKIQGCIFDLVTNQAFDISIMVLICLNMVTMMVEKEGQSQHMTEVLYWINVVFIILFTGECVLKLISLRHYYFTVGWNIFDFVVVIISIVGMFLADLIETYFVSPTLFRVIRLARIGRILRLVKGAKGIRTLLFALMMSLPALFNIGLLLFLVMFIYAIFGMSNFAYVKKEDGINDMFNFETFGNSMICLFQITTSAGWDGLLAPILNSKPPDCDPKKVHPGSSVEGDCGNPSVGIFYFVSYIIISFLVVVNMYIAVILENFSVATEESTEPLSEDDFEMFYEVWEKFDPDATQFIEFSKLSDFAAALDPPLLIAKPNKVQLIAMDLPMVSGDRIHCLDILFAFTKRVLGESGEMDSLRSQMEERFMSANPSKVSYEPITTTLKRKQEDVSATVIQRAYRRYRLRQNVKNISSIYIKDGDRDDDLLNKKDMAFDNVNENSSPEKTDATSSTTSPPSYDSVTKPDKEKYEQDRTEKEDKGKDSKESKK

SMILES | IC50 (hNav1.7; [1]) [µM] | IC50 (hNav1.5; IWQ Use Nav1.5 (μM)) [µM] | IC50 (hNav1.3; use-dependent block, hNav1.3) [µM] | IC50 (hNav1.5; [2]) [µM] | IC50 (hNav1.7) [µM] | IC50 (hNav1.7; [3]) [µM] | IC50 (hNav1.5; [4]) [µM] | IC50 (hNav1.3; Use) [µM]
CC[C@H](C)[C@@H]1NC(=O)[C@@H]2CSSC[C@@H]3NC(=O)[C@H](C(C)C)NC(=O)[C@H](CC(C)C)NC(=O)[C@H](CC(N)=O)NC(=O)[C@@H]4CCCN4C(=O)[C@H](CCCNC(=N)N)NC(=O)[C@H](CSSC[C@H](NC(=O)[C@@H](N)CC(=O)O)C(=O)N[C@@H](CC(C)C)C(=O)NCC(=O)N[C@@H](C)C(=O)N[C@@H](CCSC)C(=O)N[C@@H](CCCNC(=N)N)C(=O)N[C@@H](CCCCN)C(=O)N2)NC(=O)[C@H](CSSC[C@@H](C(=O)N[C@@H](CCCCN)C(=O)N[C@@H](Cc2ccc(O)cc2)C(=O)N[C@@H](Cc2cccc4ccccc24)C(=O)N[C@@H](Cc2ccccc2)C(N)=O)NC(=O)[C@H](Cc2c[nH]c4ccccc24)NC(=O)[C@H](CCCCN)NC(=O)[C@H](Cc2c[nH]cn2)NC(=O)[C@H]([C@@H](C)O)NC(=O)[C@H](CCCNC(=N)N)NC(=O)[C@H](CO)NC3=O)NC(=O)[C@H](CCCCN)NC(=O)[C@H](CC(=O)O)NC(=O)[C@H](CC(N)=O)NC(=O)[C@H](CC(=O)O)NC(=O)[C@@H]2CCCN2C1=O [compound 258] (H-DCLGAMRKCIPDNDKCCRPNLVCSRTHKWCKY[1Nal]F-NH2; disulfide 2-17, 9-23, 16-30) | 0.38 | 5 | 0.8 | – | – | – | – | –
CC[C@H](C)[C@@H]1NC(=O)[C@@H]2CSSC[C@@H]3NC(=O)[C@H](C(C)C)NC(=O)[C@H](CC(C)C)NC(=O)[C@H](CC(N)=O)NC(=O)[C@@H]4CCCN4C(=O)[C@H](CCCNC(=N)N)NC(=O)[C@H](CSSC[C@H](NC(=O)[C@@H](N)CC(=O)O)C(=O)N[C@@H](CC(C)C)C(=O)NCC(=O)N[C@@H](C)C(=O)N[C@@H](CCSC)C(=O)N[C@@H](CCCNC(=N)N)C(=O)N[C@@H](CCCCN)C(=O)N2)NC(=O)[C@H](CSSC[C@@H](C(=O)N[C@@H](CCCCN)C(=O)N[C@@H](Cc2ccc(O)cc2)C(=O)N[C@H](C(=O)N[C@@H](Cc2ccccc2)C(N)=O)C(C)C)NC(=O)[C@H](Cc2c[nH]c4ccccc24)NC(=O)[C@H](CCCNC(=N)N)NC(=O)[C@H](Cc2c[nH]cn2)NC(=O)[C@H]([C@@H](C)O)NC(=O)[C@H](CCCNC(=N)N)NC(=O)[C@H](CO)NC3=O)NC(=O)[C@H](CCCCN)NC(=O)[C@H](CC(=O)O)NC(=O)[C@H](CC(N)=O)NC(=O)[C@H](CC(=O)O)NC(=O)[C@@H]2CCCN2C1=O [compound 260] (H-DCLGAMRKCIPDNDKCCRPNLVCSRTHRWCKYVF-NH2; disulfide 2-17, 9-23, 16-30) | 0.33 | – | 0.24 | 5 | – | – | – | –
CC[C@H](C)[C@@H]1NC(=O)[C@@H]2CSSC[C@@H]3NC(=O)[C@H](C(C)C)NC(=O)[C@H](CC(C)C)NC(=O)[C@H](CC(N)=O)NC(=O)[C@@H]4CCCN4C(=O)[C@H](CCCNC(=N)N)NC(=O)[C@H](CSSC[C@H](NC(=O)[C@@H](N)CC(=O)O)C(=O)N[C@@H](CC(C)C)C(=O)NCC(=O)N[C@@H](C)C(=O)N[C@@H](Cc4c[nH]c5ccccc45)C(=O)N[C@@H](CCCNC(=N)N)C(=O)N[C@@H](CCCCN)C(=O)N2)NC(=O)[C@H](CSSC[C@@H](C(=O)N[C@@H](CCCCN)C(=O)N[C@@H](Cc2ccc(O)cc2)C(=O)N[C@H](C(=O)N[C@@H](Cc2ccccc2)C(N)=O)C(C)C)NC(=O)[C@H](Cc2c[nH]c4ccccc24)NC(=O)[C@H](CCCCN)NC(=O)[C@H](Cc2cnc[nH]2)NC(=O)[C@H]([C@@H](C)O)NC(=O)[C@H](CCCNC(=N)N)NC(=O)[C@H](CO)NC3=O)NC(=O)[C@H](CCCCN)NC(=O)[C@H](CC(=O)O)NC(=O)[C@H](CC(N)=O)NC(=O)[C@H](CC(=O)O)NC(=O)[C@@H]2CCCN2C1=O [compound 261] (H-DCLGAWRKCIPDNDKCCRPNLVCSRTHKWCKYVF-NH2; disulfide 2-17, 9-23, 16-30) | – | – | 0.67 | 5 | 1.01 | – | – | –
CC[C@H](C)[C@@H]1NC(=O)[C@@H]2CSSC[C@@H]3NC(=O)[C@H](C(C)C)NC(=O)[C@H](CC(C)C)NC(=O)[C@H](CC(N)=O)NC(=O)[C@@H]4CCCN4C(=O)[C@H](CCCNC(=N)N)NC(=O)[C@H](CSSC[C@H](NC(=O)[C@@H](N)CC(=O)O)C(=O)N[C@@H](CC(C)C)C(=O)NCC(=O)N[C@@H](C)C(=O)N[C@@H](Cc4ccccc4)C(=O)N[C@@H](CCCNC(=N)N)C(=O)N[C@@H](CCCCN)C(=O)N2)NC(=O)[C@H](CSSC[C@@H](C(=O)N[C@@H](CCCCN)C(=O)N[C@@H](Cc2ccc(O)cc2)C(=O)N[C@H](C(=O)N[C@@H](Cc2ccccc2)C(N)=O)C(C)C)NC(=O)[C@H](Cc2c[nH]c4ccccc24)NC(=O)[C@H](CCCCN)NC(=O)[C@H](Cc2cnc[nH]2)NC(=O)[C@H](CC(C)C)NC(=O)[C@H](CCCNC(=N)N)NC(=O)[C@H](CO)NC3=O)NC(=O)[C@H](CCCCN)NC(=O)[C@H](CC(=O)O)NC(=O)[C@H](CC(N)=O)NC(=O)[C@H](CC(=O)O)NC(=O)[C@@H]2CCCN2C1=O [compound 263] (H-DCLGAFRKCIPDNDKCCRPNLVCSRLHKWCKYVF-NH2; disulfide 2-17, 9-23, 16-30) | 0.08 | 5 | 0.05 | – | – | – | – | –
CSCC[C@@H]1NC(=O)[C@H](Cc2ccccc2)NC(=O)CNC(=O)[C@H](CC(C)C)NC(=O)[C@@H](NC(=O)[C@@H](N)CC(=O)O)CSSC[C@@H]2NC(=O)[C@@H]3CSSC[C@@H](C(=O)N[C@@H](CCCCN)C(=O)N[C@@H](Cc4ccc(O)cc4)C(=O)N[C@H](C(=O)N[C@@H](Cc4ccccc4)C(N)=O)C(C)C)NC(=O)[C@H](Cc4c[nH]c5ccccc45)NC(=O)[C@H](CCCCN)NC(=O)[C@H](Cc4cnc[nH]4)NC(=O)[C@H]([C@@H](C)O)NC(=O)[C@H](CCCNC(=N)N)NC(=O)[C@H](CO)NC(=O)[C@H](CSSC[C@H](NC(=O)[C@H](CCCCN)NC(=O)[C@H](CCCNC(=N)N)NC1=O)C(=O)N[C@@H](CC(C)C)C(=O)N1CCC[C@H]1C(=O)N[C@@H](CC(=O)O)C(=O)N[C@@H](CC(N)=O)C(=O)N[C@@H](CC(=O)O)C(=O)N[C@@H](CCCCN)C(=O)N3)NC(=O)[C@H](C(C)C)NC(=O)[C@H](CC(C)C)NC(=O)[C@H](CC(N)=O)NC(=O)[C@@H]1CCCN1C(=O)[C@H](CCCNC(=N)N)NC2=O [compound 303] (H-DCLGFMRKCLPDNDKCCRPNLVCSRTHKWCKYVF-NH2; disulfide 2-17, 9-23, 16-30) | – | – | – | – | – | 0.13 | 8.13 | 0.08
CSCC[C@@H]1NC(=O)[C@H](Cc2ccccc2)NC(=O)CNC(=O)[C@H](CC(C)C)NC(=O)[C@@H](NC(=O)[C@@H](N)CC(=O)O)CSSC[C@@H]2NC(=O)[C@@H]3CSSC[C@@H](C(=O)N[C@@H](CCCCN)C(=O)N[C@@H](Cc4ccc(O)cc4)C(=O)N[C@H](C(=O)N[C@@H](Cc4ccccc4)C(N)=O)C(C)C)NC(=O)[C@H](Cc4c[nH]c5ccccc45)NC(=O)[C@H](CCCCN)NC(=O)[C@H](Cc4c[nH]cn4)NC(=O)[C@H]([C@@H](C)O)NC(=O)[C@H](CCCNC(=N)N)NC(=O)[C@H](CO)NC(=O)[C@H](CSSC[C@H](NC(=O)[C@H](CCCCN)NC(=O)[C@H](CCCNC(=N)N)NC1=O)C(=O)N1CCC[C@H]1C(=O)N1CCC[C@H]1C(=O)N[C@@H](CC(=O)O)C(=O)N[C@@H](CC(N)=O)C(=O)N[C@@H](CC(=O)O)C(=O)N[C@@H](CCCCN)C(=O)N3)NC(=O)[C@H](C(C)C)NC(=O)[C@H](CC(C)C)NC(=O)[C@H](CC(N)=O)NC(=O)[C@@H]1CCCN1C(=O)[C@H](CCCNC(=N)N)NC2=O [compound 308] (H-DCLGFMRKCPPDNDKCCRPNLVCSRTHKWCKYVF-NH2; disulfide 2-17, 9-23, 16-30) | – | – | – | – | – | 0.4 | > 5 | 0.24

— patent publication US9340590B2 (priority 2011, dated 2016)
